Source: ChEMBL document CHEMBL1201862, “PubChem BioAssay data set” (2004)
Active and inactive are the calls of the source.

Experiments:
[1] = target: Peroxisome proliferator-activated receptor gamma/Nuclear receptor coactivator 1 (Homo sapiens, UniProt P37231); assay type: functional;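 note: agonist potency as compounds enhance coactivator SRC-1 recruitment to PPARgamma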
[2] = target: Peroxisome proliferator-activated receptor gamma/Nuclear receptor coactivator 3 (Homo sapiens, UniProt P37231); assay type: functional;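 note: agonist potency for raising coactivator recruitment to the receptor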
Peroxisome proliferator-activated receptor gamma/Nuclear receptor coactivator 3, sequence (P37231 whole entry): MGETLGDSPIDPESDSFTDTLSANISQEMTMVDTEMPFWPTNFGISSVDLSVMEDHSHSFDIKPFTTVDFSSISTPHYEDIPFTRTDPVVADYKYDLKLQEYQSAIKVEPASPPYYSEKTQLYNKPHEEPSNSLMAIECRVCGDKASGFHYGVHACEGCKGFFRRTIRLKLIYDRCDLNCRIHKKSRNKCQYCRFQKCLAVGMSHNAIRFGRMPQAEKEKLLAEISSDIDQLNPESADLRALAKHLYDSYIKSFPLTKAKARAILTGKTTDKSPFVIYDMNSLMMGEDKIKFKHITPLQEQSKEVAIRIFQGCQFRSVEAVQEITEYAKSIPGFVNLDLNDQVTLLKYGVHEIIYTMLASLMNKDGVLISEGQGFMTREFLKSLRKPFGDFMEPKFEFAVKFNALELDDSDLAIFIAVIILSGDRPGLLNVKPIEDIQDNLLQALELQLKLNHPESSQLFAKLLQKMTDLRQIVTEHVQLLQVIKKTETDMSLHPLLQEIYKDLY
Peroxisome proliferator-activated receptor gamma/Nuclear receptor coactivator 3, sequence (Q9Y6Q9 whole entry, further chain): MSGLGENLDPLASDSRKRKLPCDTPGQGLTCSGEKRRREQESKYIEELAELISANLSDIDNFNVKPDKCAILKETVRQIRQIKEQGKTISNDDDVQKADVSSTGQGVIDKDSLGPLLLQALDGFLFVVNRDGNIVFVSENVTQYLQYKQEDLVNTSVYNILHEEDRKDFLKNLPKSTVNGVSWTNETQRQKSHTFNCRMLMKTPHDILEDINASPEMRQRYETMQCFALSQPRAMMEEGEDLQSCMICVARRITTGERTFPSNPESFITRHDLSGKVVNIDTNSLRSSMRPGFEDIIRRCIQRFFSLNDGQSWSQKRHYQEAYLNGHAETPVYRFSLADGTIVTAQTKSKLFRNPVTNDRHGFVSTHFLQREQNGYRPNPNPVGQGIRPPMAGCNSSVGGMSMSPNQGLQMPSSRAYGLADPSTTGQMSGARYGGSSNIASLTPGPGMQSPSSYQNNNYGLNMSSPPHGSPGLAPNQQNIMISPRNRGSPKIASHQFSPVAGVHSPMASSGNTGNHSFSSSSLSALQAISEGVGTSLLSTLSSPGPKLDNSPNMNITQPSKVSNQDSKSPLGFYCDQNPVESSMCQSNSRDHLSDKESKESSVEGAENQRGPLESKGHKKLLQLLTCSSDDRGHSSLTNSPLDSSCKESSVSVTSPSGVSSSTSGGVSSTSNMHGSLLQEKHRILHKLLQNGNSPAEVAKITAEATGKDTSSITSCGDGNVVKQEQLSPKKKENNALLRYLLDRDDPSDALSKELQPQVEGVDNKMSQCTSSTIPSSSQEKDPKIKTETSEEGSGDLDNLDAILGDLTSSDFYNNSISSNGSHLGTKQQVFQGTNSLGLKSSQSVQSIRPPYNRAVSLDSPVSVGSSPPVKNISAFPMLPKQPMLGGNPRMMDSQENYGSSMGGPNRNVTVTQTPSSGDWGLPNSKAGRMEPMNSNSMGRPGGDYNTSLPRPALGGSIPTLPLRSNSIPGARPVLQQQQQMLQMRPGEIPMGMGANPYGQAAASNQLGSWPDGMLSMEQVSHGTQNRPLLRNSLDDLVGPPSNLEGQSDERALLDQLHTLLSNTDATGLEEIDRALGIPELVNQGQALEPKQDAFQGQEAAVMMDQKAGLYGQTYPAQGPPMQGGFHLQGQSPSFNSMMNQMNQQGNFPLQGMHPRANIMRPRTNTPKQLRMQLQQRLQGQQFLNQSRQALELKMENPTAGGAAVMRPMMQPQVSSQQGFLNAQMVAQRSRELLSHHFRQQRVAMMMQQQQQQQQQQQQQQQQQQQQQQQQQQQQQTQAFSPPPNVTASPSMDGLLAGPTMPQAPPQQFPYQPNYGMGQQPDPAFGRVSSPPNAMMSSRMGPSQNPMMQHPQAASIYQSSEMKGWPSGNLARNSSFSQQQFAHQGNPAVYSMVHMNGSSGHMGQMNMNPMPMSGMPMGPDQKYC

[3] = target: Peroxisome proliferator-activated receptor gamma/Nuclear receptor coactivator 2 (Homo sapiens, UniProt P37231); assay type: functional;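 note: agonist potency for raising coactivator recruitment to the receptor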
Peroxisome proliferator-activated receptor gamma/Nuclear receptor coactivator 2, sequence (P37231 whole entry): as the sequence (P37231 whole entry) above
Peroxisome proliferator-activated receptor gamma/Nuclear receptor coactivator 2, sequence (Q15596 whole entry, further chain): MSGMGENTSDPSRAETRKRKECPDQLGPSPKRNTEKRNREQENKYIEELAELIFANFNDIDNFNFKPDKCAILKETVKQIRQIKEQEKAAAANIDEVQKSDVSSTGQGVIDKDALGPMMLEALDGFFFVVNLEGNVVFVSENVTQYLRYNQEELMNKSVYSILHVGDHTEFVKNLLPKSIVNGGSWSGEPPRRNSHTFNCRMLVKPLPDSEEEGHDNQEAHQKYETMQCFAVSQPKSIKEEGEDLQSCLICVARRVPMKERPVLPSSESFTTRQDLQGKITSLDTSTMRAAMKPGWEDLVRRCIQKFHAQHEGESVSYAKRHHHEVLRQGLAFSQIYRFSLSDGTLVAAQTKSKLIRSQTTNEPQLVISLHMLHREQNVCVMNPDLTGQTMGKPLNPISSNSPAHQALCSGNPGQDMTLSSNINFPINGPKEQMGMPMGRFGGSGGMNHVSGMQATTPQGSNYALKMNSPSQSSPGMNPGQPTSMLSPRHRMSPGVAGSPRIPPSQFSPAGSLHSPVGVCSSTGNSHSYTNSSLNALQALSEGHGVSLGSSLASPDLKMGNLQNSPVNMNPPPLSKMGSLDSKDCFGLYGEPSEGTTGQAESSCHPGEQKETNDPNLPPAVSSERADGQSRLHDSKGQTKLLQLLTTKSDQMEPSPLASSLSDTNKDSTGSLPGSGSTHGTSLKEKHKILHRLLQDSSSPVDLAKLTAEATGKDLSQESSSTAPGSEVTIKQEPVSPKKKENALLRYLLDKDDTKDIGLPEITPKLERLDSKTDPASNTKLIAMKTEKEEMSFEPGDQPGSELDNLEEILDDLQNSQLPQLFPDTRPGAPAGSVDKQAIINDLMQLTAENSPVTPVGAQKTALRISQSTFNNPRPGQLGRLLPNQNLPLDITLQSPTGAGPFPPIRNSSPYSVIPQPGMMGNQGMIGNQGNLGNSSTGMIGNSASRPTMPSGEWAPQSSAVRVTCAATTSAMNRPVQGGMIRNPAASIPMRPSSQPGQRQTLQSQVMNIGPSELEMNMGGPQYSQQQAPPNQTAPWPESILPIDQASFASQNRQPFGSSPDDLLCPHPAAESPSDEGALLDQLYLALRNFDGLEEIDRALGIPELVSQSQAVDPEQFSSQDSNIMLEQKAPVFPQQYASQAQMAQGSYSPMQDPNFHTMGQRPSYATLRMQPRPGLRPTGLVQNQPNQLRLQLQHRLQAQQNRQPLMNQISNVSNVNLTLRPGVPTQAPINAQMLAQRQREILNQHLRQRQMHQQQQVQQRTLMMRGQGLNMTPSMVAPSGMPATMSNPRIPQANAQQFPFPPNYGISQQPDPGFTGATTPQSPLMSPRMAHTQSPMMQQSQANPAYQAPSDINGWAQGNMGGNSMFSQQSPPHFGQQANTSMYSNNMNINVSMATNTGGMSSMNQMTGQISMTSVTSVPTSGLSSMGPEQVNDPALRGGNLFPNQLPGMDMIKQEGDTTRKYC

[4] = target: Large T antigen (Simian virus 40, UniProt P03070); assay type: functional, Betapolyomavirus macacae;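 note: Confirmatory-stage PubChem screen for compounds that inhibit SV40 T antigen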
[5] = enhancers of respiration in Yfh1-depleted yeast, dose response, Friedreich's ataxia, plus single-dose screen (AID 1465); assay type: functional;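 note: yeast depleted of Yfh1p frataxin homolog grown on glycerol needing respiration; WST-1 tetrazolium dye reduction as measure of cellular dehydrogenase metabolic activity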
[6] = system: H4; test: Luminescence Cell-Based Dose Response HTS to Identify Activators of 5'UTR Stem-Loop Driven Prion Protein mRNA Translation in H4 Neuroglioblastoma Cells. [Related pubchem assays: 1829 (Project Summary), 1814 (Primary HTS)]; assay type: functional; conditions: Homo sapiens
[7] = Luminescence Cell-Based Dose Confirmation HTS to Identify Activators of 5'UTR Stem-Loop Driven Alpha-Synuclein mRNA Translation in H4 Neuroglioblastoma Cells. [Related pubchem assays: 1829 (Project Summary), 1814 (Primary HTS)]; assay type: functional
[8] = A Cell Based Secondary Assay To Explore Cytotoxicity of Compounds that Sensitize Mycobacterium Tuberculosis to Beta-Lactam Antibiotics.; assay type: functional
[9] = Luminescence Cell-Based Dose Response HTS to Identify Activators of Luciferase Translation or Activity in H4 […] Cells. [Related pubchem assays: 1829 (Project Summary), 1814 (Primary HTS)]; assay type: functional
[10] = C. albicans growth with fluconazole, confirmation, fluorescence, retest (AID 2467); assay type: functional, cell-based
[11] = target: T1, Microphthalmia-associated transcription factor (Homo sapiens, UniProt O75030); test: TRPM1 promoter luciferase signal decrease, dose response, MITF inhibitor project, cell-based, SK-MEL-5, cherry-picked, set 3 (AID 493073); assay type: functional
T1 sequence (O75030 whole entry): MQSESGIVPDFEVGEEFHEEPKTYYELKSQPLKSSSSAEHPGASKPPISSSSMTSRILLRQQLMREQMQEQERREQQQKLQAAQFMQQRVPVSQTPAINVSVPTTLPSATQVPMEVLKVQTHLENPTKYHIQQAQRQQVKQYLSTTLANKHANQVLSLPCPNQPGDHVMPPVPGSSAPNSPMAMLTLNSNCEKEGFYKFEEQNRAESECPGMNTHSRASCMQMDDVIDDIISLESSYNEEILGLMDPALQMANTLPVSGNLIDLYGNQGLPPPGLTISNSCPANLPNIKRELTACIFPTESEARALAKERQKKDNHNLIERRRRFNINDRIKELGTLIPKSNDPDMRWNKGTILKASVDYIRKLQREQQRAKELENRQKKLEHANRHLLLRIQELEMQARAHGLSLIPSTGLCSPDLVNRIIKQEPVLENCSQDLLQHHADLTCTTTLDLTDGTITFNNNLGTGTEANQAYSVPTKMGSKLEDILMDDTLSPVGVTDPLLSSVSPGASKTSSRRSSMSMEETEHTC

[12] = NIH-3T3 fibroblast cytotoxicity, dose response, cytotoxicity control, cell-based, fluorescence, Alamar Blue, secondary assay (AID 2327); assay type: functional;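 note: NIH-3T3 mouse fibroblasts cultured with fluconazole at 8 µg/mL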
[13] = target: Transitional endoplasmic reticulum ATPase (Homo sapiens, UniProt P55072, C522A); test: C522A mutant p97 ATPase inhibitors, dose response, counter-screen for p97 inhibitor project, biochemical, luminescence (AID 1544)
[14] = target: Transitional endoplasmic reticulum ATPase (Homo sapiens, UniProt P55072); test: p97 ATPase inhibitors, dose response, biochemical (AID 1534)
[15] = cells
[16] = cytotoxicity toward NIH3T3 fibroblasts, dose response, counter-screen, cell-based, ATP luminescence, mouse fibroblasts (AID 2010); assay type: functional;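 note: cells exposed to compound for about 90 hours before reading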
[17] = cells; assay type: functional, cell-based
[18] = Luminescence-based dose response cell-based high throughput screening assay for cytotoxic compounds using the IEC-6 intestinal epithelial cell line. [Related pubchem assays: 1858 (Summary AID.), 1825 (Counterscreen.), 1907 (Confirmation screen.)]; assay type: functional
[19] = cytotoxicity in HEK-293T cells, dose response, cytotoxicity control for TCR NF-kB inhibitor project, luminescence, T-cell screen hits (AID 489026); assay type: functional, cell-based;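 note: cells exposed to compound about 14 hours before the viability readout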
[20] = system: BJ; test: cytotoxicity toward BJ-TERT fibroblasts, dose response, cell-based, RAS-independent, luminescence (AID 1933); assay type: functional; conditions: Homo sapiens
[21] = inhibitors of SNCA 5'UTR-driven translation, confirmation, luminescence, H4 neuroglioblastoma cells, dose confirmation (AID 2454); assay type: functional, cell-based;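 note: H4 neuroglioblastoma cells carrying an alpha-synuclein 5'UTR luciferase reporter; potency for inhibition of the luciferase signal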
[22] = inhibitors of SNCA 5'UTR-driven reporter translation, confirmation, H4 neuroglioma cells, luminescence (AID 1988); assay type: functional, cell-based
[23] = luciferase reporter signal reduction – luminescence, H4-C neuroglioblastoma cells, dose response (AID 2458); assay type: functional, cell-based;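 note: H4 neuroglioblastoma cells stably carrying a luciferase reporter gene fusion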
[24] = inhibitors of intracellular T. cruzi replication, confirmation, NIH3T3 host cells, beta-gal luminescence (AID 2044); assay type: functional, cell-based;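 note: intracellular parasites grown in NIH/3T3 mouse fibroblasts as host cells; luminescent beta-galactosidase reporter signal from transgenic T. cruzi replicating inside host cells; inhibitors lower the luminescence signal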
[25] = system: BJ; test: cells; assay type: functional, cell-based; conditions: Homo sapiens
[26] = inhibitors of firefly luciferase expression or activity, dose response, H4 neuroglioma cells, luminescence (AID 1990); assay type: functional, cell-based
[27] = cytotoxicity toward DRD oncogenic fibroblasts, dose response, cell-based, non-viral oncogenic, luminescence (AID 1934); assay type: functional; conditions: Homo sapiens
[28] = target: T2, Polyadenylate-binding protein 1 (Homo sapiens, UniProt P11940); test: PABP1 MLLE–PAM2 interaction inhibitors, dose response, miRNA deadenylation inhibitor project, biochemical, fluorescence polarization, Cy5-PAM2 peptide, secondary (AID 602260); assay type: functional; conditions: read-out: IC50_Mean
T2 sequence (P11940 whole entry): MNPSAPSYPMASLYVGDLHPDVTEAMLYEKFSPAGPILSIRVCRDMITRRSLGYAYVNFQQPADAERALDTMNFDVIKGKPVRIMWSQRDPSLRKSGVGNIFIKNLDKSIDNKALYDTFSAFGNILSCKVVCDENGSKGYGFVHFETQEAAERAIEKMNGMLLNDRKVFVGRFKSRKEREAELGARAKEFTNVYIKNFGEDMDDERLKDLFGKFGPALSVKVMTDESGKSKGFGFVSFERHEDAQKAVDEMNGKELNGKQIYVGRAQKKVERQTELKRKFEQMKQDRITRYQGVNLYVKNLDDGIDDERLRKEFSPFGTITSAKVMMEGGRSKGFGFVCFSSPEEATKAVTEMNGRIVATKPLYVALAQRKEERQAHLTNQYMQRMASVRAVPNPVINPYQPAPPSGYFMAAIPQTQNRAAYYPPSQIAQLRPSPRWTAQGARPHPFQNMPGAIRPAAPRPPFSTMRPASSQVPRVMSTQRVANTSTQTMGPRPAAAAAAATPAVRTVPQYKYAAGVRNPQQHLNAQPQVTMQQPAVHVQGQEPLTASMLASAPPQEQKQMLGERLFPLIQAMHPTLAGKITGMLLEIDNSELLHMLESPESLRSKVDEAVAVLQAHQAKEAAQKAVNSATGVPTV

[29] = target: T2, Polyadenylate-binding protein 1; test: PABP1 MLLE–PAM2 binding inhibitor potency, dose response, biochemical, fluorescence polarization, FITC-PAM2 peptide (AID 602259); assay type: functional; conditions: read-out: IC50_Mean

Nc1nc2ccc(N3CCOCC3)cc2s1
EC50 [1]: > 79.4 µM (not active) | EC50 [2]: > 79.4 µM (not active) | EC50 [3]: > 79.4 µM (not active) | IC50 [4]: 7.66 µM (active)

O=C1CNC(=S)N1CCc1ccc(Cl)cc1
EC50 [5]: > 100 µM (active)

N#CC1=C2C=Cc3ccccc3N2CCCC1=O
EC50 [6]: 21 µM (active) | EC50 [7]: 20 µM (active) | CC50 [8]: > 40 µM (active) | EC50 [9]: 26.4 µM (active)

Cc1[nH]c2ccccc2c1C(=O)CCl
EC50 [10]: 0.497 µM (active) | AC50 [11]: 6.78 µM (active) | EC50 [12]: 8.72 µM (inconclusive) | IC50 [13]: > 50 µM (not active) | IC50 [14]: > 50 µM (not active)

C/C=C(\C)C(=O)N[C@@H](c1ccccc1)[C@@H](O)C(=O)O[C@H]1C[C@@]2(O)[C@@H](OC(=O)c3ccccc3)C3[C@](C)(C(=O)[C@H](OC(C)=O)C(=C1C)C2(C)C)[C@H](O)C[C@H]1OC[C@@]31OC(C)=O (stereo not given in full)
EC50 [15]: 0.011 µM (active) | EC50 [16]: 0.171 µM (active) | EC50 [17]: 0.19 µM (active) | IC50 [18]: 0.101 µM (active) | IC50 [19]: > 80 µM (inactive) | EC50 [20]: 0.189 µM (active) | EC50 [21]: 0.11 µM (active) | EC50 [22]: < 0.1 µM (active) | EC50 [23]: 0.092 µM (active) | EC50 [24]: < 0.1 µM (active) | EC50 [25]: > 150 µM (not active) | EC50 [26]: 1.71 µM (active) | EC50 [27]: < 0.12 µM (active)

Cc1noc(/C=C/Nc2ccc(F)cc2F)c1[N+](=O)[O-]
IC50 [28]: 35.7 µM (inactive) | CC50 [8]: 39 µM (active) | IC50 [29]: 27.5 µM (inactive)
